Experimental data from US20240417798A1, “THERAPY SELECTION AND TREATMENT OF NEURODEGENERATIVE DISORDERS” (Anavex Life Sciences Corp., priority 2021, published 2024).

How the values were obtained:
[1] = biological target: T1, Sigma-1 receptor (SIGMAR1) (Homo sapiens, UniProt Q99720); conditions: quantitative PET scan; cited from earlier work
T1 construct: host or cells: in vivo PET scan

SIGMAR1 = SIGMAR1 levels in patients of the PDD-001 trial; type: in vivo, human; conditions: use by PDD patients; rise associated with improved attention measures and reduced MDS-UPDRS total and Part III
Procedure: The trial enrolled 132 adults, ages 50-85, with PDD, and was successfully concluded in September 2020. Participants, recruited at multiple sites in Spain and Australia, were randomly assigned to one of two doses groups (with an escalating ANAVEX 2-73 dose up to 30 or 50 mg oral capsules) or to a placebo, once daily for 14 weeks (see FIG. 1 for details). The trial's main goals were to assess the therapy's safety and changes in patients' cognitive function, measured using the cognitive drug research computerized assessment system—a test that looks at multiple cognitive skills, such as choice reaction time (choosing between similar objects), vigilance, and episodic memory (remembering new personal experiences or shared information). Secondary goals included changes in patients' motor abilities—assessed with the Movement Disorders Society Unified Parkinson's Disease Rating Scale (MDS-UPDRS) Part III—and sleep quality. […] This sleep disorder is associated with greater cognitive impairment and a higher risk of dementia. […] After 14 weeks, the MDS-UPDRS total score dropped by 10.98 points (indicating an easing in disease severity) in the high-dose group and rose by 3.53 points in the placebo group. This represented an adjusted mean improvement of 14.51 points—surpassing the established, clinically meaningful 7.1 point-cut-off—and a relative improvement of 18.9% over 14 weeks. […]

[2] = test system: patients with Parkinson's Disease Dementia (PDD); conditions: previously reported results; cited from earlier work
[3] = test system: patients with Parkinson's Disease Dementia (PDD); assay: Phase 2 ANAVEX2-73-PDD-001 study, randomized, double blind, placebo-controlled, oral capsules once daily for 14 weeks; type: in vivo, human
Procedure: In order to assess the safety, tolerability and efficacy of ANAVEX®2-73 (blarcamesine) oral capsules in treating cognitive impairment in patients with Parkinson's Disease with Dementia (PDD), a phase 2 study, coded “ANAVEX®2-73-PDD-001 study” (FIG. 1), was conducted. The study was multi-center, randomized, double blind, placebo-controlled, parallel group with 3-arm. The study included a 2-week Screening/Baseline Observation Period and a 14-week Treatment Period (including a 2 week Titration Period), and a 2-week Safety Follow-Up Period. A total of 132 patients were enrolled in the study and were randomly assigned to three testing arms (FIG. 1). In ANAVEX2-73 High Dose arm, 44 patients were given oral capsules of ANAVEX2-73 once daily in an escalating dose of 10 mg, 20 mg, 30 mg and 50 mg. In ANAVEX2-73 Mid Dose arm, 44 patients were given oral capsules of ANAVEX2-73 once daily in an escalating dose of 10 mg, 20 mg, and 30 mg. In placebo group, 44 patients were given placebo capsules. Outcome measures included Cognitive Drug Research (CDR) Computerized Assessment System on Continuity of Attention; Change from Baseline to End of Treatment in Continuity of Attention as measured by Cognitive Drug Research (CDR) Computerized Assessment System Continuity of Attention; Number of participants with treatment-related adverse events as assessed by CTCAE v4.0 [Time Frame: 14 weeks]; Assessment of the safety and tolerability of ANAVEX2-73 compared to placebo; MDS-UPDRS Part III Total Score (Motor Scores); Change from baseline to End of Treatment as measured by MDS-UPDRS Part III Total Score (Motor Scores); SDS-CL-25 [Time Frame: 14 weeks]; Incidence of sleep disorders symptoms (SDS-CL-25); and DNA/RNA Sequencing.
The trial enrolled 132 adults, ages 50-85, with PDD, and was successfully concluded in September 2020. Participants, recruited at multiple sites in Spain and Australia, were randomly assigned to one of two doses groups (with an escalating ANAVEX 2-73 dose up to 30 or 50 mg oral capsules) or to a placebo, once daily for 14 weeks (see FIG. 1 for details). The trial's main goals were to assess the therapy's safety and changes in patients' cognitive function, measured using the cognitive drug research computerized assessment system—a test that looks at multiple cognitive skills, such as choice reaction time (choosing between similar objects), vigilance, and episodic memory (remembering new personal experiences or shared information). Secondary goals included changes in patients' motor abilities—assessed with the Movement Disorders Society Unified Parkinson's Disease Rating Scale (MDS-UPDRS) Part III—and sleep quality. […] This sleep disorder is associated with greater cognitive impairment and a higher risk of dementia. […]

[4] = test system: gene clusters (Cluster 1, Cluster 2) of neurodegenerative pathways; assay: Whole Blood Transcriptomics Analysis (RNAseq) of PDD patients, baseline vs Week 14, WGCNA gene clusters and pathway analysis; type: in vivo, human
Procedure: In order to gain insights into ANAVEX 2-73 response pathways, during the Phase 2 study, patients' DNA and RNA sequencing were analyzed. Transcriptomic samples of 65 patients enrolled in either High Dose or Mid Dose arms were collected at baseline and at the end of treatment (Week 14). The expression of 14,150 genes was measured. No transformation was applied to the TPM values. Values associated with a with RIN≤4.0 were discarded. The actual dose of ANAVEX 2-73 (blarcamesine) that was given to each patient during the trial was assessed and integrated into the database. […]
The genes were clustered together using WGCNA, starting from their correlation of TPM expression values across samples. […] For each cluster, the contrast ActualDose, i.e. treated vs placebo were evaluated across all timepoints. […] The ratio between cluster size and number of pathways was calculated, and top 2 clusters were retained for further Analysis. […] Known interactions between the genes of the cluster were assessed using STRING database with the parameters of Edge score >0.150, and no text mining edges. […]
Whole Blood Transcriptomics Analysis (RNAseq) of patients with Parkinson's disease dementia (PDD) was performed for the ANAVEX®2-73-PDD-001 study (FIG. 1) at two timepoints: Baseline and Week 14 (end of trial). All available RNA samples with […] (RNA integrity number, using 130 samples) were analyzed. […]

T1 sequence (Q99720 whole entry, species assumed): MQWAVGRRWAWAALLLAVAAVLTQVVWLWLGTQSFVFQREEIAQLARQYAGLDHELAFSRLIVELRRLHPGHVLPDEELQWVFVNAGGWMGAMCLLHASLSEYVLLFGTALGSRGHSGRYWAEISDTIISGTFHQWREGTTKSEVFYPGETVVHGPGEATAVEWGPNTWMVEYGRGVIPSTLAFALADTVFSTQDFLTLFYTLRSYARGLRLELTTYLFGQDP

For `CN(C)CC1CCOC1(c1ccccc1)c1ccccc1.Cl` (centres unmarked) [ANAVEX 2-73, tetrahydro-N, N-dimethyl-2,2-diphenyl-3-furanmethanamine hydrochloride], the “Direct occupancy at SIGMAR1” value [1] is listed as “has been established”, the SIGMAR1 levels (SIGMAR1) is listed as “significant increase in SIGMAR1 levels” and the Cognitive skills [2] is listed as “significantly improved several cognitive skills”. The “REM sleep behavior disorder” value [2] was “lessened REM sleep behavior disorder”, the Safety [2] was “generally safe” and the “Cognitive and sleep benefits, current trial data” value ([3]; data obtained from the current trial) was “confirmed these cognitive and sleep benefits”. For the same compound, the “MDS-UPDRS total score, adjusted mean improvement vs placebo” value ([3]; high dose (50 mg), 14 weeks, clinically meaningful cut-off 7.1 points) was 14.51 points, the “MDS-UPDRS total score, relative improvement” value ([3]; high dose (50 mg), over 14 weeks) was 18.9% and the “MDS-UPDRS total score, drop from baseline (easing in disease severity)” value ([3]; high-dose group (50 mg), after 14 weeks) was 10.98 points. The “Expression of both identified gene clusters, treated patients compared to placebo” value ([4]; after 14 weeks of treatment) was “up-regulated” and the “Dysregulations of Cluster 1 and Cluster 2, link to dose” value ([4]; linear mixed effect model, Dunnett's test) was “significantly linked to the highest dose”.
